Consider one molecule from article PMC5120274, “Characterization of the Annonaceous acetogenin, annonacinone, a natural product inhibitor of plasminogen activator inhibitor-1” (Scientific Reports, 2016).

The structures appear in SMILES notation. “And” between values parts separate entries of the source, which are not always exact repeats. Equal values may be shown once.

One assay concerns T1, PAI-1 Y79A.
T1 construct: made in house
The assay can be described thus: chromogenic screening assay with PAI-1 mutant Y79A. The format is biochemical. How it is done: (§1) Compounds from our local collection BioCIS and from the Prestwick compound library (Prestwick chemicals, Illkirch, FR), a collection containing only FDA approved drugs (around 4000 compounds in total) were tested in a chromogenic assay measuring the inhibition rate of tPA-catalyzed spectrozyme® tPA hydrolysis in the presence of PAI-1. Compounds (20 μL, final concentration 50 μM, 1% DMSO) were dispensed in a 96 well half area Greiner plate. A mixture containing 20 μL of PAI-1 (final concentration 20 nM) and 80 μL of Spectrozyme-tPA (final concentration 400 μM) was then added, and the mixture pre-incubated for 45 minutes at 37 °C. At the end of pre-incubation time, 90 μL of the mixture were added to another 96 well half area plate containing 10 μL tPA (final concentration 10 nM). The kinetic was then measured at 405 nm for 45 min at 37 °C in an Envision microplate reader. Progress curves were fitted using the pseudo first order equation to determine the apparent rate constant k.
Mutants were constructed as previously described. […] The effect of annonacinone was measured at 50 μM for each mutant in our chromogenic screening assay. […] For each mutant, the ratio between the apparent rate constants with and without 50 μM annonacinone were calculated and then compared to that of PAI-1 WT to determine the % of annonacinone activity.

Assay [1] deals with T2, PAI-1.
T2 construct: purchased Stago BNL (Asnières sur Seine, FR)
The assay can be described thus: native PAGE analysis of PAI-1 polymerization. Conditions: increasing concentrations up to 50 μM, 30 min 37 °C. It is filed as biochemical, human. How it is done: PAI-1 (1 μM) was mixed with various concentration of annonacinone or DMSO 1% for 30 min at 37 °C. Samples were mixed with 1/3 volume of native gel sample buffer or LDS sample buffer. The former were subjected to BN-PAGE and the latter were fractioned by SDS-PAGE. Proteins band were visualized by silver staining.

The test system of another assay is T3, tPA.
T3 construct: purchased Stago BNL (Asnières sur Seine, FR)
In words: tPA-catalyzed substrate hydrolysis without PAI-1 (control). It is filed as biochemical, human. The note with it: control without PAI-1. How it is done: as §1, with “inhibition rate of tPA-catalyzed spectrozyme® tPA hydrolysis in the presence of PAI-1.” left out, “A mixture containing 20 μL of PAI-1 (final concentration 20 nM) and 80 μL of Spectrozyme-tPA (final concentration 400 μM) was then added, and the mixture pre-incubated for 45 minutes at 37 °C.” left out

The next assay has as its system T4, human antithrombin.
T4 construct: purchased LFB (Aclotin)
In words: continuous chromogenic assay: fondaparinux-catalyzed inhibition of factor Xa by antithrombin. It is filed as biochemical. Conditions: antithrombin pre-incubated with 50 μM annonacinone 20 min 37 °C; control buffer 7.9 × 10^−3. How it is done:
5 μM human α1-antitrypsin (Sigma) or human antithrombin (Aclotin®, LFB) were incubated with 50 μM annonacinone (or 0.5% DMSO in reaction buffer as control) for 20 min at 37 °C. The mixtures containing α1-antitrypsin were diluted in N-Methoxysuccinyl-Ala-Ala-Pro-Val p-nitroanilide (Sigma) containing solution and substrate hydrolysis kinetic was triggered by addition of neutrophil elastase (Sigma) to a final volume of 100 μL containing 13 nM α1-antitrypsin, 130 nM annonacinone, 82 μM chromogenic substrate and 5 nM neutrophil elastase. The mixtures containing antithrombin were diluted in fondaparinux (Arixtra®, GlaxoSmithKline) and CS-11(22)-FXa (Hyphen Biomed) containing solution and substrate hydrolysis kinetic was triggered by addition of factor Xa (Stago BNL) to a final volume of 100 μL containing 51 nM antithrombin, 510 nM annonacinone, 200 μM chromogenic substrate, 5 μM fondaparinux and 2 nM factor Xa.

The next assay has as its system T5, PAI-1 K122A.
T5 construct: made in house
In words: chromogenic screening assay with PAI-1 mutant K122A. The note with it: for Annonacinone activity 50 μM (% WT): ratio of kapp relative to WT (100%). It is filed as biochemical. How it is done:
as §1
Mutants were constructed as previously described. Based on computer modelling, the following mutants were prepared, T79A, T94A, D95A, R118A and K122A. The effect of annonacinone was measured at 50 μM for each mutant in our chromogenic screening assay. Progress curves were fitted using the pseudo first order equation to determine the apparent rate constant k. For each mutant, the ratio between the apparent rate constants with and without 50 μM annonacinone were calculated and then compared to that of PAI-1 WT to determine the % of annonacinone activity.

Assay [2] has as its target T6, PAI-1 (Homo sapiens, UniProt P05121).
T6 construct: purchased Stago BNL (Asnières sur Seine, FR)
The assay can be described thus: thromboelastography (TEG) on pooled human plasma with tPA and PAI-1. The format is biochemical. The method, then: 20 μL of CaCl2 (0.2 M), 10 μL of PAI-1 (final concentration 22 nM) and 10 μL of tested compounds were added in a TEG cup and pre-incubated for 20 min at room temperature. On the other hand, 1 mL of pooled citrated normal human plasma (pool of at least 10 healthy donors) was added to a vial containing 20 μL of Kaolin. 680 μl of the plasma/Kaolin mixture were then added to 20 μL of tPA (final concentration 9 nM). At the end of pre-incubation time, 320 μL of the plasma/tPA/kaolin mixture were transferred into the TEG cup and the thromboelastogram measured.

The mark [3] stands for this setting: compound 50 μM, tPA 9 nM + PAI-1 22 nM.

The IC50 is the concentration needed to halve the response being measured.

T6 sequence (P05121 24-402): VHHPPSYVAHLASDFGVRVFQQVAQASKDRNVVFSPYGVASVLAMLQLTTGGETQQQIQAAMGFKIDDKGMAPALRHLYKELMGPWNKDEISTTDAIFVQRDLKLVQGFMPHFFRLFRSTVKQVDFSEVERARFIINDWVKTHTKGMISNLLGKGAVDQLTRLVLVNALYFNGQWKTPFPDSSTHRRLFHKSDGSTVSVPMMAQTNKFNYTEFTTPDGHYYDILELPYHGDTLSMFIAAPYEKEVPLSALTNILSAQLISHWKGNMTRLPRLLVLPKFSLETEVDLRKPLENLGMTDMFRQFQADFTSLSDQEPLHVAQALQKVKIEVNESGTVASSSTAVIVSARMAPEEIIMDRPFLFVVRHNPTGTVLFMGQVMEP

For the molecule `CCCCCCCCCCCC[C@@H](O)[C@H]1CC[C@H]([C@H](O)CCCCC(=O)CCCCC[C@@H](O)CC2=C[C@H](C)OC2=O)O1` [Annonacinone], the “kapp Annonacinone 50 μM” value with PAI-1 Y79A (DMSO 1% 4,0 ± 1,0 × 10^−3, n = 4) is 4,8 ± 0,9 × 10^−3 s^−1; in the assay on PAI-1 K122A (DMSO 1% 1,9 ± 0,3 × 10^−3, n = 4), 3,5 ± 0,9 × 10^−4 s^−1. For the same molecule, the entries for the “Annonacinone activity 50 μM (% WT)” value in the assay on PAI-1 Y79A (ratio of kapp without/with annonacinone relative to WT (100%)), in the assay on PAI-1 K122A and in the assay on PAI-1 K122A (listed as annonacinone) were 12 ± 2 % WT, 80 ± 13 % WT and “no effect”, respectively. In addition, the “effect on PAI-1 polymerization” value in the assay with PAI-1 [1] is “did not permit to show formation of PAI-1 polymers”. Besides, the “effect on tPA-catalyzed substrate hydrolysis without PAI-1” value with tPA is given as “no effect”. Besides, the “kapp of factor Xa inhibition by fondaparinux-bound antithrombin” value in the assay with human antithrombin amounted to 0.0083 s⁻¹. The IC50 at PAI-1 [2] (LY60 of three independent experiments plotted against concentration, read-out: IC50 from LY60 values) worked out at 2300 ± 1000 nM. At PAI-1 [2] (TEG, human plasma), the “effect on maximal amplitude (MA) and parameters of clot formation (R, K, angle)” value is recorded as “no significant effect”. Moreover, the Angle on PAI-1 [2] (setting [3]) stood at 73.5 °. Moreover, the “K (clot formation time)” value at PAI-1 [2] (setting [3]) was 1.6 min. For the same molecule, the “MA (maximal amplitude)” value at PAI-1 [2] (setting [3]) was 21.4 mm. Also, at PAI-1 [2] (setting [3]), the “R (clotting time)” value is given as 6 min. Moreover, the “LY30 (clot lysis 30 minutes after maximal amplitude)” value on PAI-1 [2] (compound 50 μM, tPA 9 nM + PAI-1 22 nM, tPA alone 94.3%, tPA + PAI-1 0%) came to 87.1%. Also, the “LY60 (clot lysis 60 minutes after maximal amplitude)” value at PAI-1 [2] (compound 50 μM, tPA 9 nM + PAI-1 22 nM, tPA alone 96.8%, tPA + PAI-1 0%) was 94% and 93.6%.
